This note sets out measurements from patent US20110274808A1, “METHODS FOR INCREASING THE PALATABILITY OF COMPANION ANIMAL FOOD COMPOSITIONS” (Hill's Pet Nutrition, Inc., priority 2008, published 2011).

Series [1] is described as follows: Six-month feeding safety study in dogs (body weight, physical examination, serum biochemistry, hematology). Type of series: in vivo. From the text: (§1) Thirty (30) adult, random source, dogs were utilized for this study. Dogs were at least 10 months of age, not pregnant, not lactating and of reasonable body weight prior to start of test. Animals were randomized into 5 groups for dietary treatment with 3 males and 3 females per each group.
All dogs were fed a control food (0 ppm dl-alpha-lipoic acid added) that met or exceeded all recommendations for nutrients as proposed by the American Association of Feed Control Officials (AAFCO 2000) during a 2 week prefeeding period (Table 2). […]
Test foods were the sole source of nutrients except for water. […] After dogs were selected and initial body weights taken, a food dose was calculated for each dog based on the expected ME of the food. Initial food dose calculations were based on the maintenance energy requirement (MER) for the dog modified by a factor to account for normal activity as calculated by the following formula: […]
Dogs were weighed weekly and had food doses adjusted as needed in order to feed enough food to maintain their optimal body weight. Optimal body weight was determined to be 3 on a 5 point scale. […] All measures of body weight and food intake were recorded. […]
Comparison of values for clinical chemistry, hematology and body weights vs baseline were analyzed by way of paired t-test on SAS for windows with significance set at P<0.05. […]

Series [2] is described as follows: Change in body composition of dogs over 90 days. It counts as in vivo, dog. Particulars: 90 day treatment period. From the text: Table 4 illustrates the change in body composition of dogs fed a control diet compared with dogs fed a control plus fish oil and a control plus lipoic acid.
In another series the test system is GSH:GSSG ratio. Nature of the series: Change in GSH:GSSG ratio in blood lymphocytes of dogs fed dl-alpha-lipoic acid in extruded food. It counts as in vivo, dog.
Excerpt: as §1
All dogs were fed a control food (0 ppm dl-alpha-lipoic acid added) that met or exceeded all recommendations for nutrients as proposed by the American Association of Feed Control Officials (AAFCO 2000) during a 2 week prefeeding period (Table 2). Following the prefeeding period dogs were randomized into 5 treatment groups with one of the following dl-alpha lipoic acid target-inclusions (dry matter basis): 0 ppm, 150 ppm, 1500 ppm, 3000 ppm, 4500 ppm. In all diets, control and alpha lipoic acid, Vitamin E was added and was present at a level of 600-1000 International Units and Vitamin C was added at levels of 100-200 ppm.
Blood was collected aseptically for complete blood count, and blood biochemistry analysis 2 weeks prior to start and again at 0, 28, 56, 84, 112, 140 and 168 days of the study. In addition, 15 ml of whole blood was collected for isolation of lymphocytes at day 0, 28 and 84 of the dietary intervention.
Heparinzed whole blood was layered onto a 50 ml Accuspin conical centrifuge tube (Sigma Chemical) and an equal volume of Phosphate buffered saline (PBS) was added. Samples were centrifuged at 700 g for 30 minutes without brake. The monocyte layer was harvested, transferred to a 15 ml conical centrifuge tube, resuspended in 1-3 ml of PB, and centrifuged as before (First wash). A second wash was performed as the first wash. Finally, cells were harvested and suspended in perchloric acid (10% w/v) and frozen at −70° C. until analysis.
Samples were transferred from −70° C. freezer into a cooler with dry ice in it. Vials were centrifuged at 12,000 rpm for 5 minutes in a refrigerated centrifuge. An aliquot of supernatant for glutathione (GSH) analysis was transferred to a conical test tube.
Derivatization of the acid soluble extracts was by the method of Reed and coworkers (Fariss et al) as modified by Jones (Jones et al)
Briefly, 150 μL extract or external standards were added into a 1.5 ml Eppendorf tube followed by addition of 20 μγ-Glu-Glu internal standard and 50 μL IAA added followed by mixing. The solution was adjusted to pH about 10 (purple color) by using KOH—KHCO3 working solution. Solutions were incubated 1 hr. under room temperature in the dark. Sanger's reagent was added at the same volume as of the total volume and the solution was incubated overnight (20 hrs) in the dark at room temperature.
After incubation, the solution was centrifuged at 12000 rpm for 5 minutes with the supernatant transferred into another 1.5 ml eppendorf tube.
Solvents and separation conditions were as described (Fariss, Jones). Levels of GSH and GSSG were quantified relative to authentic standards. Gamma-glutamyl-glutamate was used as an internal standard to assess derivatization efficiency.
Comparison of values for clinical chemistry, hematology and body weights vs baseline were analyzed by way of paired t-test on SAS for windows with significance set at P<0.05. Means of values at each measured time point were separated by a one-way ANOVA with significance set at P<0.05. The difference in GSH:GSSG between day 84 and baseline were analyzed between groups by way of SAS for windows in a one-way ANOVA with significance set at P<0.05.

As to `O=C(O)CCCCC1CCSS1` (racemic) [DL-Alpha Lipoic Acid, dl-alpha-lipoic acid], the “Safety of chronic feeding in diet” value in series [1] (dog, in vivo) is “safe and effective”. In addition, the Body weight result in series [1] (dogs, 4500 ppm inclusion group, 6 months) is recorded as “some weight loss occurred initially”. Also, the “Change in weight compared with control and fish oil diets” value in series [2] was “greatest change in weight”. Further, the “Difference in GSH:GSSG ratio - day 0 to day 84” value with GSH:GSSG ratio (dogs, 150 ppm inclusion in extruded food) was 70 +/− 20; in the series on GSH:GSSG ratio (dogs, 1,500 ppm inclusion in extruded food), 24 +/− 7; in the series with GSH:GSSG ratio (dogs, 3,000 ppm inclusion in extruded food), 10 +/− 4; in the series on GSH:GSSG ratio (dogs, 4,500 ppm inclusion in extruded food), 50 +/− 36. The “Effect on reduced glutathione (GSH) to oxidized glutathione (GSSG) ratio” value with GSH:GSSG ratio (dogs, chronic feeding in diet) is on record as “improves”.
